What all share (format): cell-based
For assay [1], the system named is Staphylococcus aureus 209P. Nature of the assay: MIC against Staphylococcus aureus 209P.
Assay [2] has as its system Staphylococcus aureus No. 87. The assay is described as follows: MIC against Staphylococcus aureus No. 87.
In assay [3] the test system is Bucillus subtilis PCI 219. The assay is described as follows: MIC against Bucillus subtilis PCI 219.
The test system of a further assay is Sarcina lutea PCI 1001. The assay is described as follows: MIC against Sarcina lutea PCI 1001. The note with it: Micrococcus luteus, PCI1001.
Another assay concerns Escherichia coli NIHJ. The assay is described as follows: MIC against Escherichia coli NIHJ.
The subject of another assay is Proteus vulgaris Eb51. Nature of the assay: MIC against Proteus vulgaris Eb51.
In another assay the test system is Proteus mirabilis Eb59. Nature of the assay: MIC against Proteus mirabilis Eb59.
The test system of assay [4] is Staphylococcus aureus 1840. The assay is described as follows: MIC against Staphylococcus aureus 1840.
The next assay deals with Klebsiella pneumoniae. Nature of the assay: MIC against Klebsiella pneumoniae.
The next assay concerns Proteus vulgaris. Nature of the assay: MIC against Proteus vulgaris (strain not given).
Another assay deals with Proteus morganii Eb53. Nature of the assay: MIC against Proteus morganii Eb53. The note with it: Morganella morganii.

≈ marks a conversion by molar mass, not a printed value. Structures can show the parent of a compound that is named as a salt.

For six compounds, MIC results are on record in patent publication US4008227A, “Cephalosporins” (Takeda Chemical Industries, Ltd., priority 1973, dated 1977).

For `Cc1ccc(SCC2=C(C(=O)O)N3C(=O)C(NC(=O)[C@H](O)c4ccccc4)C3SC2)n[n+]1[O-]` (single isomer, unassigned) [Example 1, 7-[D-(-)-mandelamido]-3-[6'-(3'-methylpyridazinyl)thiomethyl] -3-cephem-4-carboxylic acid 2'-oxide sodium salt], the MIC is 0.1 µg/mL in assay [1]; 5 µg/mL in [2]; less than 0.01 µg/mL in [3]; 0.2 µg/mL in the assay with Sarcina lutea PCI 1001; 0.5 µg/mL in the assay on Escherichia coli NIHJ; 1 µg/mL with Proteus vulgaris Eb51. In the assay with Proteus mirabilis Eb59, this compound returned a minimum inhibitory concentration (MIC) of 5 µg/mL.

In the case of `COc1ccc(SCC2=C(C(=O)O)N3C(=O)C(NC(=O)C[n+]4cc([O-])on4)C3SC2)[n+]([O-])n1` (stereo not shown) [Example 13, 7-[2'-(3'-sydnone)acetamido]-3-[6"-(3"-methoxypyridazinyl)thiomethyl]-3-cephem-4-carboxylic acid 1"-oxide sodium salt], the minimum inhibitory concentration (MIC) in assay [1] is less than 0.78 µg/mL; in [4], 1.56 µg/mL; against Klebsiella pneumoniae it was 1.56 µg/mL.

As for `O=C(O)C1=C(CSc2ccc(Cl)n[n+]2[O-])CSC2C(NC(=O)[C@H](O)c3ccccc3)C(=O)N12` (single isomer, unassigned) [Example 7, 7-[D-(-)-mandelamido]-3-[6'-(3'-chloropyridazinyl)thiomethyl]-3-cephem-4-carboxylic acid 1'-oxide sodium salt], the minimum inhibitory concentration (MIC) in assay [1] was less than 0.78 µg/mL; with Escherichia coli NIHJ, 1.56 µg/mL; in [4], less than 1.56 µg/mL; in the assay on Klebsiella pneumoniae, less than 0.78 µg/mL; with Proteus vulgaris it was 3.12 µg/mL; with Proteus morganii Eb53, 25 µg/mL.

In the case of `Cc1ccc(SCC2=C(C(=O)O)N3C(=O)C(NC(=O)C[n+]4cc([O-])on4)C3SC2)n[n+]1[O-]` (stereo not shown) [Example 11, 7-[2'-(3'-sydnone)acetamido]-3-[6"-(3"-methylpyridazinyl)thiomethyl]-3-cephem-4-carboxylic acid 2"-oxide], the minimal inhibitory concentration (MIC) was less than 0.78 µg/mL in assay [1], 1.56 µg/mL (≈ 3.25 µM) against Escherichia coli NIHJ, 1.56 µg/mL (≈ 3.25 µM) in assay [4] and 1.56 µg/mL (≈ 3.25 µM) in the assay with Klebsiella pneumoniae.

In the case of `COc1ccc(SCC2=C(C(=O)O)N3C(=O)C(NC(=O)[C@H](O)c4ccccc4)C3SC2)[n+]([O-])n1` (single isomer, unassigned) [Example 6, 7-[D-(-)-mandelamido]-3-[6'-(3'-methoxypyridazinyl)thiomethyl]-3-cephem-4-carboxylic acid 1'-oxide sodium salt], the MIC in [1] was less than 0.78 µg/mL; with Escherichia coli NIHJ, 1.56 µg/mL; in assay [4], 1.56 µg/mL; against Klebsiella pneumoniae it was 1.56 µg/mL.

With `O=C(C[n+]1cc([O-])on1)NC1C(=O)N2C(C(=O)O)=C(CSc3ccc(Cl)n[n+]3[O-])CSC12` (stereo not shown) [Example 12, 7-[2'-(3'-sydnone)acetamido]-3[6"-(3"-chloropyridazinyl)-thiomethyl]-3-cephem-4-carboxylic acid 1"-oxide sodium salt], the MIC in assay [1] was less than 0.78 µg/mL; in the assay on Escherichia coli NIHJ, 1.56 µg/mL; in assay [4], 1.56 µg/mL; in the assay with Klebsiella pneumoniae, 1.56 µg/mL.
